We go through 40 compounds from patent US8853207B2 (Development Center for Biotechnology, priority 2012, dated 2014).

pIC50: −log10 of the molar value. Bounds are passed on as bounds.

This assay deals with FLT3 kinase (FLT3 kinase domain alone, Upstate) (Homo sapiens (Human), UniProt P36888). The experiment in a line: FLT3 kinase assay ([33P] incorporation into substrate). In kind it is biochemical. The following applies: 100 μM ATP, 30° C., 30 minutes; read-out: IC50 against FLT3. Here is the method: Inhibition of FLT3 kinase activity by compounds disclosed herein was quantified by measuring the amount of [^33P] incorporated into the substrate in the presence of a test compound. Briefly, a reaction mixture of 25 μL final volume containing 5 ng of FLT3 kinase (FLT3 kinase domain alone, Upstate), 5 μg of the substrate [(Poly (Glu-Tyr, 4:1), Sigma], kinase reaction buffer (20 mM MOPS pH 7.0, 1 mM EDTA, 5% glycerol, 0.01% Brij-35, 0.1% β-mercaptoethanol, 1 mg/mL BSA, 100 μM ATP, 0.1 μCi per well [^33P]-γ-ATP (2,500-3,000 Ci/mmol)), and a test compound (diluted from 9 μM to the desired final concentration by 4% DMSO) or DMSO (as the control) was incubated at 30° C. for 30 minutes. The reaction was stopped by adding 5 μL of 3% phosphoric acid solution. The resultant solution (30 μL) was later harvested by a UniFilter Plate GF/B (PerkinElmer) followed by adding 30 μL of the scintillation cocktail (MicroScint 20, PerkinElmer) to the well. The radioactivity retained on the filter membrane was measured by a luminescence counter (PerkinElmer). The results were analyzed by using linear regression software (GraphPad Prism 4; GraphPad Software Inc.).
Chain of FLT3 kinase (FLT3 kinase domain alone, Upstate) (P36888 610-943): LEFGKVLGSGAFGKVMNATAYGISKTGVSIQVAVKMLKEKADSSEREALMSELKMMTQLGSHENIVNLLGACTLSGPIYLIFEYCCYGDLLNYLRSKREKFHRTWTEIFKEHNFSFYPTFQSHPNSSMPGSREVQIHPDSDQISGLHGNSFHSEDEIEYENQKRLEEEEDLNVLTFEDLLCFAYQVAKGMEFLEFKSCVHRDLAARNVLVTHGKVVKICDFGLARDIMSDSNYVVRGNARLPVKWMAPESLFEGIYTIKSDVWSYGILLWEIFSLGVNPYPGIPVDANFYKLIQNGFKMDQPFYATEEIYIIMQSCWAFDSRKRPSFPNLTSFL
One may read the pIC50 as the negative decadic logarithm of the IC50, by convention in mol/L. In the case of “6-(2-Fluoro-phenyl)-4,7-dihydro-1-thia-4,5-diaza-cyclopenta[a]pentalene [Example-41]”, the pIC50 is more than 7.00.

With “6-(3-Fluoro-phenyl)-4,7-dihydro-1-thia-4,5-diaza-cyclopenta[a]pentalene [Example-38]”, the negative-log IC50 (pIC50) was 6.30 to 7.00.

Take “6-[4-(4-Methyl-piperazin-1-yl)-phenyl]-2-pyridin-3-yl-4,7-dihydro-1-thia-4,5-diaza-cyclopenta[a]pentalene hydrochloride [Example-90]”: the pIC50 is more than 7.00.

For `Brc1ccc(-c2[nH]nc3c2Cc2sccc2-3)cc1` [Example-1, 6-(4-Bromo-phenyl)-5,7-dihydro-1-thia-4,5-diaza-cyclopenta[a]-pentalene], the pIC50 is more than 7.00.

For the compound `COc1cccc(-c2n[nH]c3c2Cc2sccc2-3)c1` [Example-3, 6-(3-Methoxy-phenyl)-4,7-dihydro-1-thia-4,5-diaza-cyclopenta[a]pentalene], the pIC50 was 6.30 to 7.00.

With `COc1ccc(-c2n[nH]c3c2Cc2sccc2-3)c(OC)c1` [Example-4, 6-(2,4-Dimethoxy-phenyl)-4,7-dihydro-1-thia-4,5-diaza-cyclopenta[a]pentalene], the negative logarithm of the IC50 (pIC50) was more than 7.00.

With `O=[N+]([O-])c1ccc(-c2n[nH]c3c2Cc2sccc2-3)cc1` [Example-5, 6-(4-Nitro-phenyl)-4,7-dihydro-1-thia-4,5-diaza-cyclopenta[a]pentalene], the pIC50 was 6.30 to 7.00.

As to `c1ccc(-c2n[nH]c3c2Cc2sccc2-3)cc1` [Example-6, 6-Phenyl-4,7-dihydro-1-thia-4,5-diaza-cyclopenta[a]pentalene], the pIC50 is 6.30 to 7.00.

On to `Fc1ccc(Nc2ccc(-c3n[nH]c4c3Cc3sccc3-4)cc2)cc1` [Example-7, [4-(4,7-Dihydro-1-thia-4,5-diaza-cyclopenta[a]pentalen-6-yl)-phenyl]-(4-fluoro-phenyl)-amine], for which the negative-log IC50 (pIC50) is 6.30 to 7.00.

`COc1ccc(Nc2ccc(-c3n[nH]c4c3Cc3sccc3-4)cc2)cc1` [Example-8, [4-(4,7-Dihydro-1-thia-4,5-diaza-cyclopenta[a]pentalen-6-yl)-phenyl]-(4-methoxy-phenyl)-amine]: the pIC50 was 6.30 to 7.00.

`COc1cc(-c2ccc(-c3n[nH]c4c3Cc3sccc3-4)cc2)ccc1O` [Example-9, 4′-(4,7-Dihydro-1-thia-4,5-diaza-cyclopenta[a]pentalen-6-yl)-3-methoxy-biphenyl-4-ol]: the pIC50 was more than 7.00.

In the case of `Oc1ccc(-c2ccc(-c3n[nH]c4c3Cc3sccc3-4)cc2)cc1` [Example-11, 4′-(4,7-Dihydro-1-thia-4,5-diaza-cyclopenta[a]pentalen-6-yl)-biphenyl-4-ol], the negative-log IC50 (pIC50) was more than 7.00.

Consider `C(=Cc1ccc(-c2n[nH]c3c2Cc2sccc2-3)cc1)c1ccccc1` [Example-12, 6-(4-Styryl-phenyl)-4,7-dihydro-1-thia-4,5-diaza-cyclopenta[a]pentalene], for which the negative logarithm of the IC50 (pIC50) was less than 6.00.

As to `Nc1ccc(Nc2ccc(-c3n[nH]c4c3Cc3sccc3-4)cc2)cc1` [Example-13, N-[4-(4,7-Dihydro-1-thia-4,5-diaza-cyclopenta[a]pentalen-6-yl)-phenyl]-benzene-1,4-diamine], the negative-log IC50 (pIC50) was 6.30 to 7.00.

For `COc1ccc(-c2ccc(-c3n[nH]c4c3Cc3sccc3-4)cc2)cc1OC` [Example-14, 6-(3′,4′-Dimethoxy-biphenyl-4-yl)-4,7-dihydro-1-thia-4,5-diaza-cyclopenta[a]pent alene], the pIC50 is more than 7.00.

For the compound `N#Cc1ccc(-c2ccc(-c3n[nH]c4c3Cc3sccc3-4)cc2)cc1` [Example-15, 4′-(4,7-Dihydro-1-thia-4,5-diaza-cyclopenta[a]pentalen-6-yl)-biphenyl-4-carbonitrile], the pIC50 is more than 7.00.

`c1cncc(-c2n[nH]c3c2Cc2sccc2-3)c1` [Example-16, 6-Pyridin-3-yl-4,7-dihydro-1-thia-4,5-diaza-cyclopenta[a]pentalene]: the negative-log IC50 (pIC50) is 6.30 to 7.00.

`c1cc(-c2n[nH]c3c2Cc2sccc2-3)co1` [Example-17, 6-Furan-3-yl-4,7-dihydro-1-thia-4,5-diaza-cyclopenta[a]pentalene]: the negative logarithm of the IC50 (pIC50) was 6.00 to 6.30.

Take `Clc1cc(Cl)cc(-c2ccc(-c3n[nH]c4c3Cc3sccc3-4)cc2)c1` [Example-18, 6-(3′,5′-Dichloro-biphenyl-4-yl)-4,7-dihydro-1-thia-4,5-diaza-cyclopenta[a]pentalene]: the pIC50 is 6.30 to 7.00.

In the case of `FC(F)(F)c1ccc(-c2ccc(-c3n[nH]c4c3Cc3sccc3-4)cc2)cc1` [Example-19, 6-(4′-Trifluoromethyl-biphenyl-4-yl)-4,7-dihydro-1-thia-4,5-diaza-cyclopenta[a]pentalene], the negative-log IC50 (pIC50) was less than 6.00.

In the case of `Brc1ccc(Nc2n[nH]c3c2Cc2sccc2-3)cc1` [Example-20, (4-Bromo-phenyl)-(4,7-dihydro-1-thia-4,5-diaza-cyclopenta[a]pentalen-6-yl)-amine], the pIC50 was 6.30 to 7.00.

Turning to `Clc1ccc(Nc2n[nH]c3c2Cc2sccc2-3)c(Cl)c1` [Example-21, (2,4-Dichloro-phenyl)-(4,7-dihydro-1-thia-4,5-diaza-cyclopenta[a]pentalen-6-yl)-amine], the negative-log IC50 (pIC50) was 6.00 to 6.30.

Take `Ic1ccc(Nc2n[nH]c3c2Cc2sccc2-3)cc1` [Example-22, (4,7-Dihydro-1-thia-4,5-diaza-cyclopenta[a]pentalen-6-yl)-(4-iodo-phenyl)-amine]: the pIC50 was 6.30 to 7.00.

In the case of `COc1ccc(Nc2n[nH]c3c2Cc2sccc2-3)cc1` [Example-23, (4,7-Dihydro-1-thia-4,5-diaza-cyclopenta[a]pentalen-6-yl)-(4-methoxy-phenyl)-amine], the pIC50 is less than 6.00.

Take `COc1ccc(Nc2n[nH]c3c2Cc2sccc2-3)cc1OC` [Example-24, (4,7-Dihydro-1-thia-4,5-diaza-cyclopenta[a]pentalen-6-yl)-(3,4-dimethoxy-phenyl)-amine]: the pIC50 was more than 7.00.

Take `Clc1cccc(Nc2[nH]nc3c2Cc2sccc2-3)c1` [Example-25, (3-Chloro-phenyl)-(4,7-dihydro-1-thia-4,5-diaza-cyclopenta[a]pentalen-6-yl)-amine]: the negative-log IC50 (pIC50) was more than 7.00.

For `COc1cccc(Nc2n[nH]c3c2Cc2sccc2-3)c1` [Example-26, (4,7-Dihydro-1-thia-4,5-diaza-cyclopenta[a]pentalen-6-yl)-(3-methoxy-phenyl)-amine], the pIC50 was more than 7.00.

With `Brc1cc2c(s1)Cc1c(-c3ccccc3)n[nH]c1-2` [Example-27], the negative logarithm of the IC50 (pIC50) is more than 7.00.

As to `[O-][n+]1cccc(-c2n[nH]c3c2Cc2sccc2-3)c1` [Example-28, 6-(1-Oxy-pyridin-3-yl)-4,7-dihydro-1-thia-4,5-diaza-cyclopenta[a]pentalene], the negative logarithm of the IC50 (pIC50) was less than 6.00.

For `FC(F)(F)c1cccc(Nc2n[nH]c3c2Cc2sccc2-3)c1` [Example-29, (4,7-Dihydro-1-thia-4,5-diaza-cyclopenta[a]pentalen-6-yl)-(3-trifluoromethyl-phenyl)-amine], the pIC50 is more than 7.00.

Take `Fc1cccc(Nc2n[nH]c3c2Cc2sccc2-3)c1` [Example-30, (4,7-Dihydro-1-thia-4,5-diaza-cyclopenta[a]pentalen-6-yl)-(3-fluoro-phenyl)-amine]: the negative logarithm of the IC50 (pIC50) was 6.30 to 7.00.

For the compound `Clc1ccccc1Nc1n[nH]c2c1Cc1sccc1-2` [Example-31, (2-Chloro-phenyl)-(4,7-dihydro-1-thia-4,5-diaza-cyclopenta[a]pentalen-6-yl)-amine], the pIC50 was 6.30 to 7.00.

Turning to `Clc1ccc(Nc2n[nH]c3c2Cc2sccc2-3)cc1` [Example-32, (4-Chloro-phenyl)-(4,7-dihydro-1-thia-4,5-diaza-cyclopenta[a]pentalen-6-yl)-amine], the negative logarithm of the IC50 (pIC50) is 6.30 to 7.00.

For `Brc1ccc(-c2n[nH]c3c2Cc2sc(Br)cc2-3)cc1` [Example-33, 2-Bromo-6-(4-bromo-phenyl)-4,7-dihydro-1-thia-4,5-diaza-cyclopenta[a]pentalene], the pIC50 was more than 7.00.

Turning to `COc1ccc(-c2n[nH]c3c2Cc2sc(Br)cc2-3)cc1` [Example-34, 2-Bromo-6-(4-methoxy-phenyl)-4,7-dihydro-1-thia-4,5-diaza-cyclopenta[a]pentalene], the negative-log IC50 (pIC50) was more than 7.00.

Regarding `FC(F)(F)c1ccc(Nc2n[nH]c3c2Cc2sccc2-3)cc1` [Example-35, (4,7-Dihydro-1-thia-4,5-diaza-cyclopenta[a]pentalen-6-yl)-(4-trifluoromethyl-phenyl)-amine], the pIC50 was 6.30 to 7.00.

On to `Brc1cccc(Nc2n[nH]c3c2Cc2sccc2-3)c1` [Example-36, (3-Bromo-phenyl)-(4,7-dihydro-1-thia-4,5-diaza-cyclopenta[a]pentalen-6-yl)-amine], for which the pIC50 is 6.30 to 7.00.

Regarding `Fc1cccc(Nc2ccc(-c3n[nH]c4c3Cc3sccc3-4)cc2)c1` [Example-37, [4-(4,7-Dihydro-1-thia-4,5-diaza-cyclopenta[a]pentalen-6-yl)-phenyl]-(3-fluoro-phenyl)-amine], the negative logarithm of the IC50 (pIC50) was more than 7.00.

Take `Clc1cccc(-c2n[nH]c3c2Cc2sccc2-3)c1` [Example-39, 6-(3-Chloro-phenyl)-4,7-dihydro-1-thia-4,5-diaza-cyclopenta[a]pentalene]: the pIC50 was more than 7.00.

Turning to `Fc1ccc(-c2n[nH]c3c2Cc2sccc2-3)cc1` [Example-40, 6-(4-Fluoro-phenyl)-4,7-dihydro-1-thia-4,5-diaza-cyclopenta[a]pentalene], the pIC50 was 6.30 to 7.00.
